Measurements from patent US12643903B2, “Bifunctional compounds for degradation of EGFR and related methods of use” (BeiGene, Ltd., priority 2020, dated 2026).

Columns and labels:
Format in all cases: cell-based
Conditions in all cases: 16 h treatment, EGFR degradation by HTRF
EGFR LTC = molecular target: T1, EGFR LTC (Homo sapiens, UniProt P00533, C797S/L858R/T790M); test: Cell Degradation 3: EGFR degradation in BaF3 cells (LTC), HTRF assay
T1 construct: expressed in transfected cells; host or cells: BaF3
T1 sequence (P00533 25-1210 T790M/C797S/L858R): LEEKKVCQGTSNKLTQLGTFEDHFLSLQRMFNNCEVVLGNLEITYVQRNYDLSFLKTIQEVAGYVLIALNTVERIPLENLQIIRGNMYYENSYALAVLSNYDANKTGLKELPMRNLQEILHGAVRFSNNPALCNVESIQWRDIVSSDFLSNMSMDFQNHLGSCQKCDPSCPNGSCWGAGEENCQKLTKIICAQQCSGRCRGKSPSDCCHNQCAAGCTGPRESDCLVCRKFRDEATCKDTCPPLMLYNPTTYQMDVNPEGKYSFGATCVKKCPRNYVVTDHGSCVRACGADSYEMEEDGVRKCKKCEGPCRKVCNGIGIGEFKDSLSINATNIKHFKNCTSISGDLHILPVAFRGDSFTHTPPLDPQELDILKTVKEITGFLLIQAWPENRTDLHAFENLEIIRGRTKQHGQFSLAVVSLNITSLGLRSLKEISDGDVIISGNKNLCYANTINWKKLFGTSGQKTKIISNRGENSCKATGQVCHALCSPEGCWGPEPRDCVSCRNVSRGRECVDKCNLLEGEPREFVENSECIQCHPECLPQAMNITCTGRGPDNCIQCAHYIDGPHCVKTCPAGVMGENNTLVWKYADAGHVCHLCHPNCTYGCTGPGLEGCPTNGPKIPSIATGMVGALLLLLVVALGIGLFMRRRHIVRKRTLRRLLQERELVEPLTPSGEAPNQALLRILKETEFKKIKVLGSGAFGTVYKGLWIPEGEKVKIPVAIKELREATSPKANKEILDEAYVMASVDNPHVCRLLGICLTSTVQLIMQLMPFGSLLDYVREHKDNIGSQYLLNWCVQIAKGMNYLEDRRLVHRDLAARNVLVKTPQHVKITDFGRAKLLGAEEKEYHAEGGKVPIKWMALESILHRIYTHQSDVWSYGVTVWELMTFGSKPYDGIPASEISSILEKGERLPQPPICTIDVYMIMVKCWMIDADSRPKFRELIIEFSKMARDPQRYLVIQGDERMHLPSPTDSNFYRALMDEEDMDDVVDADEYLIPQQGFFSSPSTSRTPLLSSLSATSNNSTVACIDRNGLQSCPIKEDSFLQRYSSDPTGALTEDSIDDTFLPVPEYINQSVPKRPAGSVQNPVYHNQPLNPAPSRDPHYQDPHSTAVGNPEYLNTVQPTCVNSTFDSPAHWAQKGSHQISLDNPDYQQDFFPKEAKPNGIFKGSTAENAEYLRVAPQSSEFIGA
Method in brief: (§1)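 BaF3 cells expressing EGFR (LTC triple mutant C797S/L858R/T790M or DTC) exposed to compounds for 16 h, 8 doses from 4-fold dilution, 0.2% DMSO. Residual EGFR quantified by HTRF in lysates (triple mutant lysate diluted 1:1); DC50 from four-parameter logistic fit.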

EGFR [1] = molecular target: T2, EGFR (Homo sapiens, UniProt P00533, L858R/T790M); test: Cell Degradation 1: EGFR degradation in H1975 cells, HTRF assay
T2 construct: endogenous in cells; host or cells: H1975
T2 sequence (P00533 25-1210 T790M/L858R): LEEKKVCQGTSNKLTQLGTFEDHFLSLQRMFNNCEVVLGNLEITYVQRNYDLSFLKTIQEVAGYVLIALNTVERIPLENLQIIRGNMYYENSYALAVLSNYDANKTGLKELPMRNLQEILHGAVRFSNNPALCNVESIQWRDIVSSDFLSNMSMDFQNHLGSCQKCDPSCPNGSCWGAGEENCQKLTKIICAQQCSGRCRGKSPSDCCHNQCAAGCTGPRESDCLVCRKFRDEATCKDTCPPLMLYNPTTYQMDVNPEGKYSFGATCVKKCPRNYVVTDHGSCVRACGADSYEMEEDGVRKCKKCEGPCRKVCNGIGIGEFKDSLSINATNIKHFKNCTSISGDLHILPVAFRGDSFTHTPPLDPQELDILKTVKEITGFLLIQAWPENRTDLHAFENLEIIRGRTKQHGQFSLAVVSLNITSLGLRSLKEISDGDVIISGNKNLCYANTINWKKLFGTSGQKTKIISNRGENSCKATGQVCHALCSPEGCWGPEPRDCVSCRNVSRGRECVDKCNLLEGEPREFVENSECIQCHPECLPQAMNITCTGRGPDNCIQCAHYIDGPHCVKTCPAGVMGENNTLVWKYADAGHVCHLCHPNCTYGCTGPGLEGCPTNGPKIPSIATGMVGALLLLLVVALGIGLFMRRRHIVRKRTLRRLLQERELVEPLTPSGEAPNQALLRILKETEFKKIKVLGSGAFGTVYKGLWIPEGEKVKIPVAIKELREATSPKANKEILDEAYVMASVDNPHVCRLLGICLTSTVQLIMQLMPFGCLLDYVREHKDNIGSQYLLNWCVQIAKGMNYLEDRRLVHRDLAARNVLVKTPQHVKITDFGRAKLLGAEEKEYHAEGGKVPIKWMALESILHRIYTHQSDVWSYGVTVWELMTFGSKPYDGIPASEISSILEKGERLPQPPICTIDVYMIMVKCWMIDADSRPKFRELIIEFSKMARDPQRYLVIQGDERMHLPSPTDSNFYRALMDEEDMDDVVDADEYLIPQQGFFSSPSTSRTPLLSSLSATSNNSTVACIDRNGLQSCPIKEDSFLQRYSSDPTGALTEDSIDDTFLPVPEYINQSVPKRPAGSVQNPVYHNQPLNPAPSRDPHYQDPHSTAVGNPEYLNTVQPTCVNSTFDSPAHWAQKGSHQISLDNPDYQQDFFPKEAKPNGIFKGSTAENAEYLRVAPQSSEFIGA
Method in brief: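 EGFR levels were read by HTRF (337 nm excitation, 665 and 620 nm emission) in lysates of H1975 cells exposed to compound for 16 h, with antibodies incubated overnight at room temperature. Fitting percent inhibition versus concentration to a Hill equation gave DC50.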

EGFR DTC = test: Cell Degradation 3: EGFR degradation in BaF3 cells (DTC), HTRF assay
Method in brief: as §1

EGFR [2] = molecular target: T3, EGFR (Homo sapiens, UniProt P00533, DEL746-750); test: Cell Degradation 2: EGFR degradation in HCC827 cells, HTRF assay
T3 construct: endogenous in cells; host or cells: HCC827
T3 sequence (P00533 with tags, fused parts or gaps DEL746-750): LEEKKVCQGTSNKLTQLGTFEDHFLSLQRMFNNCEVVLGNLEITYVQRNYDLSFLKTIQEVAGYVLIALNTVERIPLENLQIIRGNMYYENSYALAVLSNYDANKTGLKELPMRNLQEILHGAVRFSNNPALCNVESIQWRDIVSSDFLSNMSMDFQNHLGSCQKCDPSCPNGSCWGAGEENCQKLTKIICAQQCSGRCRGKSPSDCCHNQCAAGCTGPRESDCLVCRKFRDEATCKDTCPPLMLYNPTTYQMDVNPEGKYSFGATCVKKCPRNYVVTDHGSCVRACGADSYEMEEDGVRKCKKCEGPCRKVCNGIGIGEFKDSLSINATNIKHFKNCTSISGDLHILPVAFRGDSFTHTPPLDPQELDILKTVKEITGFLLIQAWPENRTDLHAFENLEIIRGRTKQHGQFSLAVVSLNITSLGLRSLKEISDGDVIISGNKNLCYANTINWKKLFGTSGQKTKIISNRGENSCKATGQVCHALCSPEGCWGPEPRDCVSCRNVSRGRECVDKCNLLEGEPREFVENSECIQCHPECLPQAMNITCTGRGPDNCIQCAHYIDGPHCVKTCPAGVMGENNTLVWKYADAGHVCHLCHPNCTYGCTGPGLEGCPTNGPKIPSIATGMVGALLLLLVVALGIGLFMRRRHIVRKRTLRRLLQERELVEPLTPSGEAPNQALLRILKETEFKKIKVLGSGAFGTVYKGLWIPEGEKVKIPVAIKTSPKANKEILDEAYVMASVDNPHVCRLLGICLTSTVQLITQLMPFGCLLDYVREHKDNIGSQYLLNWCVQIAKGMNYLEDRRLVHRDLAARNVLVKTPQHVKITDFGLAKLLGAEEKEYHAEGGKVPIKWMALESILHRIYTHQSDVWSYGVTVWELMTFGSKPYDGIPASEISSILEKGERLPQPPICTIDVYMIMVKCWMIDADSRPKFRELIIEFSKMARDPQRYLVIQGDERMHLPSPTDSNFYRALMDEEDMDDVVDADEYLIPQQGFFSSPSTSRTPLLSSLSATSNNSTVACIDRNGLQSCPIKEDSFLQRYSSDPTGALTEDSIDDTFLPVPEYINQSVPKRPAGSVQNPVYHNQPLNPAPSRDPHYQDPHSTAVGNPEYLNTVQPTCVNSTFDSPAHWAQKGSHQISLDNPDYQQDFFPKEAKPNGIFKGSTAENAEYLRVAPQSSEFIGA
T3 sequence (Q96SW2 whole entry partner): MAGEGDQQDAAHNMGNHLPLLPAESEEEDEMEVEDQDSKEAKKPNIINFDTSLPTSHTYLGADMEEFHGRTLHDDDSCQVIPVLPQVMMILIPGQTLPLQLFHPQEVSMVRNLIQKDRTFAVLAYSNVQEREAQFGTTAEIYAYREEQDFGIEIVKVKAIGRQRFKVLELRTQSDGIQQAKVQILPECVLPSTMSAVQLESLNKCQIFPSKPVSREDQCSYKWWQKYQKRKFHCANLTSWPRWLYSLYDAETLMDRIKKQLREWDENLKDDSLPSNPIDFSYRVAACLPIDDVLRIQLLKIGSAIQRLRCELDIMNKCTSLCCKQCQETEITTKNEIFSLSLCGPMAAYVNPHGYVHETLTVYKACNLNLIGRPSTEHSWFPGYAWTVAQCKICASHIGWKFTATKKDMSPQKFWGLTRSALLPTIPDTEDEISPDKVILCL
Method in brief: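 DC50 values derive from four-parameter fits of percent inhibition versus concentration. The HTRF read-out (665/620 nm ratio, 337 nm excitation) followed 16 h compound exposure of HCC827 cells, 1 h lysis and overnight room-temperature incubation with the HTRF antibodies.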

Row | Compound | DC50 (EGFR LTC) | DC50 (EGFR [1]) | DC50 (EGFR DTC) | DC50 (EGFR [2])
1 | CS(=O)(=O)N1CCc2cccc(Nc3nc(Nc4ccc(N5CCC(N6CCN(CCC7CCN(c8ccc(C9CCC(=O)NC9=O)cc8)CC7)CC6)CC5)c(F)c4)ncc3Cl)c21 (stereo not drawn) [Example 79, 3-(4-(4-(2-(4-(1-(4-((5-chloro-4-((1-(methylsulfonyl)indolin-7-yl)amino)pyrimidin-2-yl)amino)-2-fluorophenyl)piperidin-4-yl)piperazin-1-yl)ethyl)piperidin-1-yl)phenyl)piperidine-2,6-dione] | 84.6 nM | 6 nM | 49.6 nM | 5.5 nM
2 | CS(=O)(=O)N1CCc2cccc(Nc3nc(Nc4ccc(N5CCC(N6CCN(CCc7ccc(C8CCC(=O)NC8=O)cc7)CC6)CC5)c(F)c4)ncc3Cl)c21 (stereo not drawn) [Example 45, 3-(4-(2-(4-(1-(4-((5-chloro-4-((1-(methylsulfonyl)indolin-7-yl)amino)pyrimidin-2-yl)amino)-2-fluorophenyl)piperidin-4-yl)piperazin-1-yl)ethyl)phenyl)piperidine-2,6-dione] | 17.3 nM | 2.3 nM | 9.9 nM | 6.7 nM
3 | COc1cc(N2CCC(N3CCN(CCc4ccc(C5CCC(=O)NC5=O)cc4)CC3)CC2)ccc1Nc1ncc(Cl)c(Nc2cccc3c2N(S(C)(=O)=O)CC3)n1 (stereo not drawn) [Example 34, 3-(4-(2-(4-(1-(4-((5-chloro-4-((1-(methylsulfonyl)indolin-7-yl)amino)pyrimidin-2-yl)amino)-3-methoxyphenyl)piperidin-4-yl)piperazin-1-yl)ethyl)phenyl)piperidine-2,6-dione] | 276 nM | 7 nM | 38.2 nM | 6.7 nM

The next compounds have a lower DC50 (EGFR LTC) than those just listed; values first:

Row | DC50 (EGFR LTC) | DC50 (EGFR [1]) | DC50 (EGFR DTC) | DC50 (EGFR [2]) | Compound
4 | 14.6 nM | 3.2 nM | 5.9 nM | 3 nM | CS(=O)(=O)N1CCc2cccc(Nc3nc(Nc4ccc(N5CCC(N6CCN(C(=O)[C@@H]7CCN(c8ccc9c(c8)C(=O)N(C8CCC(=O)NC8=O)C9=O)C7)CC6)CC5)c(F)c4)ncc3Cl)c21 (stereo partly drawn) [Example 83, 5-((R)-3-(4-(1-(4-((5-chloro-4-((1-(methylsulfonyl)indolin-7-yl)amino)pyrimidin-2-yl)amino)-2-fluorophenyl)piperidin-4-yl)piperazine-1-carbonyl)pyrrolidin-1-yl)-2-(2,6-dioxopiperidin-3-yl)isoindoline-1,3-dione]
5 | 12.2 nM | 5.5 nM | 6.5 nM | 4.3 nM | CS(=O)(=O)N1CCc2cccc(Nc3nc(Nc4ccc(N5CCC(N6CCN(CCC7CCN(c8ccc(C9CCC(=O)NC9=O)c(F)c8)CC7)CC6)CC5)c(F)c4)ncc3Cl)c21 (stereo not drawn) [Example 80, 3-(4-(4-(2-(4-(1-(4-((5-chloro-4-((1-(methylsulfonyl)indolin-7-yl)amino)pyrimidin-2-yl)amino)-2-fluorophenyl)piperidin-4-yl)piperazin-1-yl)ethyl)piperidin-1-yl)-2-fluorophenyl)piperidine-2,6-dione]
6 | 4.4 nM | 3.7 nM | 3 nM | 17.6 nM | CS(=O)(=O)N1CCc2cccc(Nc3nc(Nc4ccc(N5CCC(N6CCN(CCc7cc(F)c(C8CCC(=O)NC8=O)c(F)c7)CC6)CC5)c(F)c4)nc4[nH]ccc34)c21 (stereo not drawn) [Example 68, 3-(2,6-difluoro-4-(2-(4-(1-(2-fluoro-4-((4-((1-(methylsulfonyl)indolin-7-yl)amino)-7H-pyrrolo[2,3-d]pyrimidin-2-yl)amino)phenyl)piperidin-4-yl)piperazin-1-yl)ethyl)phenyl)piperidine-2,6-dione]
